# According to US9169254B2, “Spiroimidazolone derivative” (Chugai Seiyaku Kabushiki Kaisha, priority 2009, dated 2015):
# Target: T1, human PTH1 receptor (Homo sapiens, UniProt Q03431)
# T1 sequence (Q03431 27-593): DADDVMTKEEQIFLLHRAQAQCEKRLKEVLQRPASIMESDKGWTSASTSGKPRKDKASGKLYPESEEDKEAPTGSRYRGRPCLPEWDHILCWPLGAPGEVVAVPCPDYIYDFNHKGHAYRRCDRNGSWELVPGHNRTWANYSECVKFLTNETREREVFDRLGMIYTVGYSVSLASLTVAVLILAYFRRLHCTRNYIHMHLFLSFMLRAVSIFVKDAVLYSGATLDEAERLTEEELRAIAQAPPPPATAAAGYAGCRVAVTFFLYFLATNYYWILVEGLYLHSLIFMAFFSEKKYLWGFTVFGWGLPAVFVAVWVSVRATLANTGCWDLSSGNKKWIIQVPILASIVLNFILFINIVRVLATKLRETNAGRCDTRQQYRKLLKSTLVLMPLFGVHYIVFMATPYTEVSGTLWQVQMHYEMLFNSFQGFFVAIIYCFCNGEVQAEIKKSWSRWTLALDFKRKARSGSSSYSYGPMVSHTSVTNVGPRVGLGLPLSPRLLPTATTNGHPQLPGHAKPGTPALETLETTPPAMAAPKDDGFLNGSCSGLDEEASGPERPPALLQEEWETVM
# Assay: In vitro cAMP signal activity in HKRK-B7 cells (LLC-PK1 cells overexpressing the human PTH1 receptor)
# Format: cell-based
# Settings: HKRK-B7 cells; compound at 1×10^−3 M; cAMP produced as percentage of that produced by hPTH(1-34) at 100 nM
row,Structure (SMILES),cAMP production activity (%)
1,Cc1cc2ccc1CCS(=O)(=O)N1CCC3(CC1)N=C(NC3=O)c1cc(cc(C(F)(F)F)c1)OCCCCCO[C@H]1CN(C[C@@H]1O)C2=O [Compound 1425],32%
2,"Cc1cc(C2=NC3(CCN(S(=O)(=O)/C=C/c4c(C)cc(C(=O)N5CCC(C)(O)CC5)cc4C)CC3)C(=O)N2)ccc1C(F)(F)F [Compound 1193, 8-{(E)-2-[4-(4-hydroxy-4-methyl-piperidine-1-carbonyl)-2,6-dimethyl-phenyl]-ethenesulfonyl}-2-(3-methyl-4-trifluoromethyl-phenyl)-1,3,8-triaza-spiro[4.5]dec-1-en-4-one]",86%
3,"Cc1cc(C(=O)N2CC(O)C2)cc(C)c1/C=C/S(=O)(=O)N1CCC2(CC1)N=C(c1cccc(C(F)(F)F)c1)NC2=O [Compound 385, 8-{(E)-2-[4-(3-hydroxy-azetidine-1-carbonyl)-2,6-dimethyl-phenyl]-ethenesulfonyl}-2-(3-trifluoromethyl-phenyl)-1,3,8-triaza-spiro[4.5]dec-1-en-4-one]",94%
4,"Cc1cc(C(=O)N2CCC(O)(CF)CC2)cc(C)c1CCS(=O)(=O)N1CCC2(CC1)N=C(c1ccc(OC(F)(F)F)cc1)NC2=O [Compound 1276, 8-{2-[4-(4-fluoromethyl-4-hydroxy-piperidine-1-carbonyl)-2,6-dimethyl-phenyl]-ethanesulfonyl}-2-(4-trifluoromethoxy-phenyl)-1,3,8-triaza-spiro[4.5]dec-1-en-4-one]",140%
5,"O=C(C1CCc2ccccc2C1)N1CCCC(C2=NC3(CCN(S(=O)(=O)CCc4cccc5ccccc45)CC3)C(=O)N2)C1 (centres unmarked) [Compound 430, 8-(2-naphthalen-1-yl-ethanesulfonyl)-2-[1-(1,2,3,4-tetrahydro-naphthalene-2-carbonyl)-piperidin-3-yl]-1,3,8-triaza-spiro[4.5]dec-1-en-4-one]",23%
6,"CC(C)(C)C1=NC2(CCN(S(=O)(=O)c3cccc(Cl)c3)CC2)C(=O)N1 [Compound 16, 2-tert-butyl-8-(3-chloro-benzenesulfonyl)-1,3,8-triaza-spiro[4.5]dec-1-en-4-one]",41%
7,"CC(=O)Nc1ccc(CCS(=O)(=O)N2CCC3(CC2)N=C(c2cccc(C#N)c2)NC3=O)c(C)c1 [Compound 907, N-(4-{2-[2-(3-cyano-phenyl)-4-oxo-1,3,8-triaza-spiro[4.5]dec-1-ene-8-sulfonyl]-ethyl}-3-methyl-phenyl)-acetamide]",85%
8,"Cc1cc(C(=O)N2CCC(C)(O)CC2)cc(C)c1/C=C/[S@TB4](=O)(=O)N1CCC2(CC1)N=C(c1cccc(CC(F)(F)F)c1)NC2=O [Compound 1097, 8-{(E)-2-[4-(4-hydroxy-4-methyl-piperidine-1-carbonyl)-2,6-dimethyl-phenyl]-ethenesulfonyl}-2-[3-(2,2,2-trifluoro-ethyl)-phenyl]-1,3,8-triaza-spiro[4.5]dec-1-en-4-one]",90%

# Second part, the molecule after the results:
row,cAMP production activity (%),Structure (SMILES)
1,96%,"Cc1cc(CC(N)=O)ccc1/C=C/S(=O)(=O)N1CCC2(CC1)N=C(C1CCC(C)CC1)NC2=O (centres unmarked) [Compound 737, 2-(3-Methyl-4-{(E)-2-[2-(4-methyl-cyclohexyl)-4-oxo-1,3,8-triaza-spiro[4.5]dec-1-ene-8-sulfonyl]-vinyl}-phenyl)-acetamide]"
2,124%,"Cc1cc(N2CCOCC2=O)cc(C)c1CCS(=O)(=O)N1CCC2(CC1)N=C(C1CCC(CCC(F)(F)F)CC1)NC2=O (centres unmarked) [Compound 764, 8-{2-[2,6-dimethyl-4-(3-oxo-morpholin-4-yl)-phenyl]-ethanesulfonyl}-2-[4-(3,3,3-trifluoro-propyl)-cyclohexyl]-1,3,8-triaza-spiro[4.5]dec-1-en-4-one]"
3,77%,"Cc1cc(N(C)C(N)=O)cc(C)c1CC[S@TB3](=O)(=O)N1CCC2(CC1)N=C(C1CC(C(F)(F)F)CC(C(F)(F)F)C1)NC2=O [Compound 1138, 1-(4-{2-[2-((1R,3R,5S)-3,5-bis-trifluoromethyl-cyclohexyl)-4-oxo-1,3,8-triaza-spiro[4.5]dec-1-ene-8-sulfonyl]-ethyl}-3,5-dimethyl-phenyl)-1-methyl-urea]"
4,68%,"CNC(=O)c1ccccc1CCS(=O)(=O)N1CCC2(CC1)N=C(C1CCCCC1)NC2=O [Compound 421, 2-[2-(2-Cyclohexyl-4-oxo-1,3,8-triaza-spiro[4.5]dec-1-ene-8-sulfonyl)-ethyl]-N-methyl-benzamide]"
5,58%,"COCCN(C(N)=O)c1cc(C)c(/C=C/S(=O)(=O)N2CCC3(CC2)N=C(C2CCC(CCC(F)(F)F)CC2)NC3=O)c(C)c1 (centres unmarked) [Compound 725, 1-[3,5-dimethyl-4-((E)-2-{4-oxo-2-[4-(3,3,3-trifluoro-propyl)-cyclohexyl]-1,3,8-triaza-spiro[4.5]dec-1-ene-8-sulfonyl}-vinyl)-phenyl]-1-(2-methoxy-ethyl)-urea]"
6,71%,"Cc1cc(CN2C(=O)CCC2=O)cc(C)c1CCS(=O)(=O)N1CCC2(CC1)N=C(C1CCC(CCC(F)(F)F)CC1)NC2=O (centres unmarked) [Compound 777, 1-[3,5-dimethyl-4-(2-{4-oxo-2-[4-(3,3,3-trifluoro-propyl)-cyclohexyl]-1,3,8-triaza-spiro[4.5]dec-1-ene-8-sulfonyl}-ethyl)-benzyl]-pyrrolidine-2,5-dione]"
7,86%,"CC(=O)NCc1cc(C)c(CCS(=O)(=O)N2CCC3(CC2)N=C(C2CCC(C)CC2)NC3=O)c(C)c1 (centres unmarked) [Compound 773, N-(3,5-dimethyl-4-{2-[2-(4-methyl-cyclohexyl)-4-oxo-1,3,8-triaza-spiro[4.5]dec-1-ene-8-sulfonyl]-ethyl}-benzyl)-acetamide]"
8,39%,"COc1cccc(/C=C/S(=O)(=O)N2CCC3(CC2)N=C([C@H]2CC[C@H](C)CC2)NC3=O)c1C [Compound 585, 8-[(E)-2-(3-methoxy-2-methyl-phenyl)-ethenesulfonyl]-2-(4-methyl-cyclohexyl)-1,3,8-triaza-spiro[4.5]dec-1-en-4-one]"
9,94%,"CCOCCCCCCC1=NC2(CCN(S(=O)(=O)CCc3c(C)cc(N(C)C(N)=O)cc3C)CC2)C(=O)N1 [Compound 1344, 1-(4-{2-[2-(6-ethoxy-hexyl)-4-oxo-1,3,8-triaza-spiro[4.5]dec-1-ene-8-sulfonyl]-ethyl}-3,5-dimethyl-phenyl)-1-methyl-urea]"
10,67%,"Cc1cc(C(=O)N(C)C)cc(C)c1/C=C/S(=O)(=O)N1CCC2(CC1)N=C(C1CCC(C)CC1)NC2=O (centres unmarked) [Compound 1003, 3,5,N,N-tetramethyl-4-{(E)-2-[2-(4-methyl-cyclohexyl)-4-oxo-1,3,8-triaza-spiro[4.5]dec-1-ene-8-sulfonyl]-vinyl}-benzamide]"
11,81%,"Cc1cc(NCCN(C)C)ccc1CCS(=O)(=O)N1CCC2(CC1)N=C(C1CCCCC1)NC2=O [Compound 842, 2-cyclohexyl-8-{2-[4-(2-dimethylamino-ethylamino)-2-methyl-phenyl]-ethanesulfonyl}-1,3,8-triaza-spiro[4.5]dec-1-en-4-one]"
12,55%,"Cc1cc(N2C(=O)CN(C)C2=O)ccc1CCS(=O)(=O)N1CCC2(CC1)N=C(C1CCC(C)CC1)NC2=O (centres unmarked) [Compound 862, 1-methyl-3-(3-methyl-4-{2-[2-(4-methyl-cyclohexyl)-4-oxo-1,3,8-triaza-spiro[4.5]dec-1-ene-8-sulfonyl]-ethyl}-phenyl)-imidazolidine-2,4-dione]"
